Six compounds from patent US20250313604A1, “PEPTIDE PHARMACEUTICALS FOR INSULIN RESISTANCE” (Mederis Diabetes LLC, priority 2014, published 2025) can be followed below.

SMILES strings stand for the structures. Read-outs that look alike come from different tables or passages of the source.

One series has as its system DIO mice. As to the kind of experiment: In vivo assay in DIO mice (OGTT, insulin, body weight, NMR body composition). How it is done: Fifty (50) diet induced obese (DIO) C57BL/6J male mice were received from JAX labs at 6 wks of age. The mice were ear notched for identification and housed […] in positively ventilated polycarbonate cages with HEPA filtered air at a density of 5 mice per cage. The animal room was lit entirely with artificial fluorescent lighting, with a controlled 12 h light/dark cycle. The normal temperature and relative humidity ranges in the animal rooms were 22±4° C. and 50±15%, respectively. Filtered tap water, acidified to a pH of 2.8 to 3.1, and high fat diet (Research Diets D12492; 60 kcal %) was provided ad libitum.
Following a 2 week acclimation, 50 mice were randomized into groups (n=10) as below. Group 1. Vehicle treated; Group 2. Low dose EU-A994; Group 3. high dose EU-A594; Group 4. low dose EU-A1024; Group 5. high dose EU-A1024. Mice were dosed via SC on days 1 (0, 7 hrs.), 3, 6, 9, 12, 15, 18, 21, 24. Body weights and cage side observations were recorded daily. Food and water intake was recorded weekly. Mice underwent NMR measurements for determining whole body fat and lean composition on days 1 (pre-dose) and 26. On day 26, mice were fasted overnight for an oral glucose tolerance test. Next day, the first blood sample was collected via tail nick (t=0). Mice were then administered a bolus of 1.0 g/kg glucose. Blood samples were obtained via tail nick at 0, 15, 30, 60, 90 and 120 min after glucose and plasma glucose was immediately determined using a glucometer.
Sacrifice and tissue collection: Mice were sacrificed on day 28. Terminal blood was processed to serum/plasma and aliquots were sent for analysis of glucose, insulin and lipid profile. Body composition was determined by NMR.

The target of the next series is T1, GLP-1 R (Homo sapiens, UniProt P43220).
T1 construct: host or cells: CHO cells
T1 sequence (P43220 24-463): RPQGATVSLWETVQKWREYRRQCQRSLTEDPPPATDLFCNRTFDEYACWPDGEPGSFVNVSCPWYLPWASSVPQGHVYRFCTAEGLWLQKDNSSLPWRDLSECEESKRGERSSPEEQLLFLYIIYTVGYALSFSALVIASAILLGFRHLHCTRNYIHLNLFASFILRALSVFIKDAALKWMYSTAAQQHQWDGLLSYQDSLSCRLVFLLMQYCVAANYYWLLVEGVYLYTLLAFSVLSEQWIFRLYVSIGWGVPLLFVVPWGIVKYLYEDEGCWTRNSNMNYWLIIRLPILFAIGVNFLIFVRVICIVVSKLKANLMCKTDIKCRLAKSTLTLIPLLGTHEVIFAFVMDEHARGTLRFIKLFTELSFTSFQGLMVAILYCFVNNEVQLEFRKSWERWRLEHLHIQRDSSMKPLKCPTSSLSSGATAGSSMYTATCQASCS
Put plainly: DiscoveRx LeadHunter cellular assay, cAMP stimulation, GLP-1 receptor. As to conditions: human receptor cloned into CHO cells. Type of series: cell-based.

The next series addresses T2, glucagon R (Homo sapiens, UniProt P47871).
T2 construct: host or cells: CHO cells
Put plainly: DiscoveRx LeadHunter cellular assay, cAMP stimulation, glucagon receptor. The class given is cell-based. Conditions: human receptor cloned into CHO cells.

A short description of series [1]: Plasma protease stability. Type of series: in vitro ADME. Conditions: incubation at 30 degC, t=0-8 hrs, LC-MS (FIG. 8). How it is done:
Standard and QC Sample Preparation: i. […] Make standard working solutions in 50% CH3CN with the stock solution. […] Spiked 10 μL of the working solutions into 90 μL blank plasma and vortex them, iv. […] Transfer the supernatant into an HPLC injection plate for loading on the HPLC column, vi.

T2 sequence (P47871 26-477): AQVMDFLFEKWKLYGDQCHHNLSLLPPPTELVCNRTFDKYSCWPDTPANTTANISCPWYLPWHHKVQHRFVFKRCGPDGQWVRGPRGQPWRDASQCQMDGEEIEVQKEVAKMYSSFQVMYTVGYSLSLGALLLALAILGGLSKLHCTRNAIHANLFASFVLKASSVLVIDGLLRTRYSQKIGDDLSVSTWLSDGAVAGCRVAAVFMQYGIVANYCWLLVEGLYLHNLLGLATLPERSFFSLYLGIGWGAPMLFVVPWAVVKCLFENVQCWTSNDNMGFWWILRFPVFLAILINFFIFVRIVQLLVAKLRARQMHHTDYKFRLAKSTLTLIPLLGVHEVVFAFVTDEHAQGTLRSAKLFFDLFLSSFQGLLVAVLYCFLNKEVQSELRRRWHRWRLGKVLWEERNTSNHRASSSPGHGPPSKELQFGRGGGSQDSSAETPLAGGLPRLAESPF
Description for GLP-1 R: (§1) A further series of cellular assays were carried out using standard cellular assays (DiscoveRx, LeadHunter assays) using readout of cAMP stimulation or arrestin activation. Compounds were weighed precisely in an amount of approximately 1 mg and shipped to DiscoveRx for dilution and assay.
Description for glucagon R: as §1

For `CCCCCCCCCCCCCCO[C@@H]1O[C@H](CO[C@H]2O[C@H](C(=O)NCCCC[C@H](NC(=O)[C@@H](NC(=O)[C@H](Cc3ccccc3)NC(=O)[C@H](CCC(=O)O)NC(=O)[C@@H]3CCCCNC(=O)CC[C@H](NC(=O)[C@H](CC(=O)O)NC(=O)[C@H](CC(C)C)NC(=O)[C@H](Cc4ccc(O)cc4)NC(=O)[C@H](CCCCN)NC(=O)[C@H](CO)NC(=O)[C@H](Cc4ccc(O)cc4)NC(=O)[C@H](CC(=O)O)NC(=O)[C@H](CO)NC(=O)[C@@H](NC(=O)[C@H](Cc4ccccc4)NC(=O)[C@@H](NC(=O)CNC(=O)[C@H](CCC(N)=O)NC(=O)C(C)(C)NC(=O)[C@@H](N)Cc4c[nH]cn4)[C@@H](C)O)[C@@H](C)O)C(=O)N[C@@H](CCC(N)=O)C(=O)N[C@@H](C)C(=O)N[C@@H](C)C(=O)N3)[C@@H](C)CC)C(=O)N[C@@H](Cc3c[nH]c4ccccc34)C(=O)N[C@@H](CC(C)C)C(=O)N[C@@H](CC(C)C)C(=O)N[C@@H](CCC(N)=O)C(=O)N[C@H](C(N)=O)[C@@H](C)O)[C@H](O)[C@H](O)[C@H]2O)[C@@H](O)[C@H](O)[C@H]1O` [EU-A1024, His1-Aib2-Gln3-Gly4-Thr5-Phe6-Thr7-Ser8-Asp9-Tyr10-Ser11-Lys12-Tyr13-Leu14-Asp15-Glu*16-Gln17 Ala18-Ala19-Lys*20-Glu21-Phe22-Ile23-Lys (N-omega (1-tetradecyl beta-D-melibiouronyl)) 24-Trp25-Leu26-Leu27-Gln28-Thr29-NH2], in the series with DIO mice (NMR (FIG. 11)), the fat mass result was “decreased fat mass” and the lean mass result is listed as “minimal effects on lean mass”. Also, in the series with DIO mice (SC dosing days 1-24), the basal insulin secretion entry is given as “decreased basal insulin secretion” and the glucose-dependent insulin secretion entry is on record as “potentiated glucose-dependent insulin secretion”. In addition, in the series on DIO mice (SC dosing days 1-24 (FIG. 10)), the weight gain result is “decreased weight gain”. The “glucose excursion in the OGTT” value in the series on DIO mice (SC dosing days 1-24, OGTT 1.0 g/kg glucose) is “decreased glucose excursion”.
`CCCCCCCCCCCCCCO[C@H]1O[C@H](CO[C@H]2O[C@H](C(=O)NCCCC[C@@H]3NC(=O)[C@@H](NC(=O)[C@H](CC(=O)O)NC(=O)[C@H](CC(C)C)NC(=O)[C@H](Cc4ccc(O)cc4)NC(=O)[C@H](CCCCN)NC(=O)[C@H](CO)NC(=O)[C@H](Cc4ccc(O)cc4)NC(=O)[C@H](CC(=O)O)NC(=O)[C@H](CO)NC(=O)[C@@H](NC(=O)[C@H](Cc4ccccc4)NC(=O)[C@@H](NC(=O)CNC(=O)[C@H](CCC(N)=O)NC(=O)C(C)(C)NC(=O)[C@@H](N)Cc4c[nH]cn4)[C@@H](C)O)[C@@H](C)O)CCC(=O)NCCCC[C@@H](C(=O)N[C@@H](CCC(=O)O)C(=O)N[C@@H](Cc4ccccc4)C(=O)N[C@H](C(=O)N[C@@H](CCC(N)=O)C(=O)N[C@@H](Cc4c[nH]c5ccccc45)C(=O)N[C@@H](CC(C)C)C(=O)N[C@@H](CC(C)C)C(=O)N[C@@H](CCC(N)=O)C(=O)N[C@H](C(N)=O)[C@@H](C)O)[C@@H](C)CC)NC(=O)[C@H](C)NC(=O)[C@H](C)NC3=O)[C@H](O)[C@H](O)[C@H]2O)[C@@H](O)[C@H](O)[C@H]1O` [EU-A1587, His1-Aib2-Gln3-Gly4-Thr5-Phe6-Thr7-Ser8-Asp9-Tyr10-Ser11-Lys12-Tyr13-Leu14-Asp15-Glu*16-Lys (N-omega (1-tetradecyl alpha-D-melibiouronyl)) 17 Ala18-Ala19-Lys*20-Glu21-Phe22-Ile23-Gln24-Trp25-Leu26-Leu27-Gln28-Thr29-NH2]: the EC50 on GLP-1 R was 0.081 nM; at glucagon R, 0.253 nM.
Take `CCCCCCCCCCCCCCCCCCO[C@H]1O[C@H](CO[C@H]2O[C@H](C(=O)NCCCC[C@@H]3NC(=O)[C@@H](NC(=O)[C@H](CC(=O)O)NC(=O)[C@H](CC(C)C)NC(=O)[C@H](Cc4ccc(O)cc4)NC(=O)[C@H](CCCCN)NC(=O)[C@H](CO)NC(=O)[C@H](Cc4ccc(O)cc4)NC(=O)[C@H](CC(=O)O)NC(=O)[C@H](CO)NC(=O)[C@@H](NC(=O)[C@H](Cc4ccccc4)NC(=O)[C@@H](NC(=O)CNC(=O)[C@H](CCC(N)=O)NC(=O)C(C)(C)NC(=O)[C@@H](N)Cc4c[nH]cn4)[C@@H](C)O)[C@@H](C)O)CCC(=O)NCCCC[C@@H](C(=O)N[C@@H](CCC(=O)O)C(=O)N[C@@H](Cc4ccccc4)C(=O)N[C@H](C(=O)N[C@@H](CCC(N)=O)C(=O)N[C@@H](Cc4c[nH]c5ccccc45)C(=O)N[C@@H](CC(C)C)C(=O)N[C@@H](CC(C)C)C(=O)N[C@@H](CCC(N)=O)C(=O)N[C@H](C(N)=O)[C@@H](C)O)[C@@H](C)CC)NC(=O)[C@H](C)NC(=O)[C@H](C)NC3=O)[C@H](O)[C@H](O)[C@H]2O)[C@@H](O)[C@H](O)[C@H]1O` [EU-A1589, His1-Aib2-Gln3-Gly4-Thr5-Phe6-Thr7-Ser8-Asp9-Tyr10-Ser11-Lys12-Tyr13-Leu14-Asp15-Glu*16Lys (N-omega (1-octadecyl alpha-D-melibiouronyl)) 17 Ala18-Ala19-Lys*20-Glu21-Phe22-Ile23-Gln24-Trp25-Leu26-Leu27-Gln28-Thr29-NH2]: the results for the EC50 on GLP-1 R and at glucagon R were 0.236 nM and 0.655 nM, respectively.
As for `CCCCCCCCCCCCO[C@@H]1O[C@H](CO[C@H]2O[C@H](C(=O)NCCCC[C@H](NC(=O)[C@@H](NC(=O)[C@H](Cc3ccccc3)NC(=O)[C@H](CCC(=O)O)NC(=O)[C@@H]3CCCCNC(=O)CC[C@H](NC(=O)[C@H](CC(=O)O)NC(=O)[C@H](CC(C)C)NC(=O)[C@H](Cc4ccc(O)cc4)NC(=O)[C@H](CCCCN)NC(=O)[C@H](CO)NC(=O)[C@H](Cc4ccc(O)cc4)NC(=O)[C@H](CC(=O)O)NC(=O)[C@H](CO)NC(=O)[C@@H](NC(=O)[C@H](Cc4ccccc4)NC(=O)[C@@H](NC(=O)CNC(=O)[C@H](CCC(N)=O)NC(=O)C(C)(C)NC(=O)[C@@H](N)Cc4c[nH]cn4)[C@@H](C)O)[C@@H](C)O)C(=O)N[C@@H](CCC(N)=O)C(=O)N[C@@H](C)C(=O)N[C@@H](C)C(=O)N3)[C@@H](C)CC)C(=O)N[C@@H](Cc3c[nH]c4ccccc34)C(=O)N[C@@H](CC(C)C)C(=O)N[C@@H](CC(C)C)C(=O)N[C@@H](CCC(N)=O)C(=O)N[C@H](C(=O)NCCOCCOCCOCCOCCC(=O)O)[C@@H](C)O)[C@H](O)[C@H](O)[C@H]2O)[C@@H](O)[C@H](O)[C@H]1O` [EU-A1639], the EC50 was 0.385 nM on GLP-1 R and 2.29 nM at glucagon R (read-out: EC50 cAMP glucagon R).
The matching figures for `CCCCCCCCCCCCO[C@@H]1O[C@H](CO[C@H]2O[C@H](C(=O)NCCCC[C@H](NC(=O)[C@@H](NC(=O)[C@H](Cc3ccccc3)NC(=O)[C@H](CCC(=O)O)NC(=O)[C@@H]3CCCCNC(=O)CC[C@H](NC(=O)[C@H](CC(=O)O)NC(=O)[C@H](CC(C)C)NC(=O)[C@H](Cc4ccc(O)cc4)NC(=O)[C@H](CCCCN)NC(=O)[C@H](CO)NC(=O)[C@H](Cc4ccc(O)cc4)NC(=O)[C@H](CC(=O)O)NC(=O)[C@H](CO)NC(=O)[C@@H](NC(=O)[C@H](Cc4ccccc4)NC(=O)[C@@H](NC(=O)CNC(=O)[C@H](CCC(N)=O)NC(=O)C(C)(C)NC(=O)[C@@H](N)Cc4c[nH]cn4)[C@@H](C)O)[C@@H](C)O)C(=O)N[C@@H](CCC(N)=O)C(=O)N[C@@H](C)C(=O)N[C@@H](C)C(=O)N3)[C@@H](C)CC)C(=O)N[C@@H](Cc3c[nH]c4ccccc34)C(=O)N[C@@H](CC(C)C)C(=O)N[C@@H](CC(C)C)C(=O)N[C@@H](CCC(N)=O)C(=O)N[C@H](C(=O)NCCOCCOCCOCCOCCOCCOCCOCCOCCC(=O)O)[C@@H](C)O)[C@H](O)[C@H](O)[C@H]2O)[C@@H](O)[C@H](O)[C@H]1O` [EU-A1651]: 0.033 nM and 0.149 nM.
On to `CC[C@H](C)[C@H](NC(=O)[C@H](Cc1ccccc1)NC(=O)[C@H](CCC(=O)O)NC(=O)[C@H](CCCCN)NC(=O)[C@H](C)NC(=O)[C@H](C)NC(=O)[C@H](CCC(N)=O)NC(=O)CNC(=O)[C@H](CCC(=O)O)NC(=O)[C@H](CC(C)C)NC(=O)[C@H](Cc1ccc(O)cc1)NC(=O)[C@H](CO)NC(=O)[C@H](CO)NC(=O)[C@@H](NC(=O)[C@H](CC(=O)O)NC(=O)[C@H](CO)NC(=O)[C@@H](NC(=O)[C@H](Cc1ccccc1)NC(=O)[C@@H](NC(=O)CNC(=O)[C@H](CCC(=O)O)NC(=O)[C@H](C)NC(=O)[C@@H](N)Cc1c[nH]cn1)[C@@H](C)O)[C@@H](C)O)C(C)C)C(=O)N[C@@H](C)C(=O)N[C@@H](Cc1c[nH]c2ccccc12)C(=O)N[C@@H](CC(C)C)C(=O)N[C@H](C(=O)N[C@@H](CCCCN)C(=O)NCC(=O)N[C@@H](CCCNC(=N)N)C(N)=O)C(C)C` [GIP-1 (7-36), reference compound], for which the “amount of intact compound in the human plasma versus time” value in series [1] was “rapid decrease”.
